Here are results for nine compounds from patent US7101881B2, “Tetrahydroquinolines” (Pfizer Inc, priority 2003, dated 2006).

As usually defined, the melting point is the temperature of the solid-liquid transition.

Structures can show the parent of a compound that is named as a salt.

For `CN1CCN(c2cccc3c2CN(C(=O)CC2CC2)CC3)CC1` (as salt: salt), the melting point came out at 66 °C.

In turn, `CN1CCN(c2cccc3c2CN(C(=O)CCc2ccc(Cl)cc2)CC3)CC1` (as salt: salt) [Example 2, 3-(4-Chloro-phenyl)-1-[8-(4-methyl-piperazin-1-yl)-3,4-dihydro-1H-isoquinolin-2-yl]-propan-1-one] displayed a melting point of 84 °C.

The compound `COc1ccc(CC(=O)N2CCc3cccc(N4CCN(C)CC4)c3C2)cc1` (as salt: salt) [Example 3, 2-(4-Methoxy-phenyl)-1-[8-(4-methyl-piperazin-1-yl)-3,4-dihydro-1H-isoquinolin-2-yl]-ethanone] returned a melting point of 63 °C.

`CN1CCN(c2cccc3c2CN(C(=O)Cc2ccc(Cl)cc2Cl)CC3)CC1` (as salt: salt) [Example 6, 2-(2,4-Dichloro-phenyl)-1-[8-(4-methyl-piperazin-1-yl)-3,4-dihydro-1H-isoquinolin-2-yl]-ethanone] returned a melting point of 85 °C.

Take `CN1CCN(c2cccc3c2CN(C(=O)Cc2ccccc2Cl)CC3)CC1` (as salt: salt) [Example 7, 2-(2-Chloro-phenyl)-1-[8-(4-methyl-piperazin-1-yl)-3,4-dihydro-1H-isoquinolin-2-yl]-ethanone]: the melting point stood at 54 °C.

On to `CN1CCN(c2cccc3c2CN(C(=O)Cc2cccnc2)CC3)CC1` (as salt: salt) [Example 9, 1-[8-(4-Methyl-piperazin-1-yl)-3,4-dihydro-1H-isoquinolin-2-yl]-2-pyridin-3-yl-ethanone], for which the melting point amounted to 56 °C.

As to `CN1CCN(c2cccc3c2CN(C(=O)c2ccc(Cl)cc2)CC3)CC1` (as salt: salt) [Example 10, (4-Chloro-phenyl)-[8-(4-methyl-piperazin-1-yl)-3,4-dihydro-1H-isoquinolin-2-yl]-methanone], the melting point worked out at 52 °C.

As for `CN1CCN(c2cccc3c2CN(C(=O)c2ccc(N4CCOCC4)cc2)CC3)CC1` [Example 11, [8-(4-Methyl-piperazin-1-yl)-3,4-dihydro-1H-isoquinolin-2-yl]-(4-morpholin-4-yl-phenyl)-methanone], the melting point was 129 °C (dec.).

In turn, `CN1CCN(c2cccc3c2CN(C(=O)Cc2ccc(Cl)c(Cl)c2)CC3)CC1` [Example 12, 2-(3,4-Dichloro-phenyl)-1-[8-(4-methyl-piperazin-1-yl)-3,4-dihydro-1H-isoquinolin-2-yl]-ethanone] showed a melting point of 66 °C.
